The values that follow come from a melting point compilation (Tetko et al.; mined from patent text by program, amines drawn as free bases though some values may be those of a salt).

Broadly, the melting point is the temperature, or range, at which the solid turns liquid. In turn, `Fc1cccc(Cl)c1COc1cc(Cl)cnc1NC(=S)Nc1ccc(Cl)cc1` yielded a melting point of 158 to 160 °C.
On to `CCOCCOc1c(C)cc(Oc2ccc3c(c2)C=C(C(=O)Nc2ccc(CN(C)C4CCOCC4)cc2)CCS3(=O)=O)cc1C`, for which the melting point fell in the range of 111 to 113 °C.
The value for `COc1ccccc1CCCNc1ccc(C(=O)O)cc1` was 155 to 157 °C; that for `O=c1c2ccccc2c(-c2ccccc2)c2n1CCCC2O` (stereo not given) was 220 to 222 °C; that for `O=c1[nH]c(=O)n(Cc2ccccc2)cc1C(F)(F)F` was 194 to 195 °C.
Turning to `O=C(O)CCCCCCCCN1NNN=C1C(c1ccccc1)c1ccccc1`, the melting point was 68 to 70 °C.
For `C=CCOn1c(=O)c2cc(F)c(N3CCCC3)cc2n(Cc2ccccc2)c1=O`, the melting point was 148 to 150 °C.
The value for `CCC(COc1cccc(COc2cccc3ccc(=O)[nH]c23)c1)OC(C)=O` (stereo not given) was 81 to 84 °C; that for `CN(c1cccc2cc(-c3ncc(C(=O)O)s3)[nH]c12)S(=O)(=O)c1cccs1` was 258 to 260 °C.
As to `C=C(C)CSc1nc2c(cc1C#N)C(=O)CCC2`, the melting point was in the range of 85 to 86 °C.
`COc1ccc2c(C(=O)O)cc3cc(OC)c(OC)cc3c2c1` displayed a melting point of 241 to 243 °C.
Take `COC(=O)c1cc(C)cc(-c2cccs2)c1NS(=O)(=O)c1ccc(OC)cc1`: the melting point was determined as 141 °C.
`CC1C(=O)Oc2cc(N3CCOCC3)c(Cl)cc21` (stereo not given) had a melting point of 103 to 105 °C.
The value for `CC(=O)C=Cc1ccc(Br)cc1` was 82 to 84 °C; that for `COC(=O)C(=Cc1c[nH]c2cc(Cl)ccc12)[N+](=O)[O-]` was 159 to 160 °C.
`CCCNC1=NS(=O)(=O)c2cc([N+](=O)[O-])ccc2N1` yielded a melting point of 268 to 270 °C.
Consider `NS(=O)(=O)c1cc(Br)cc2c1OS(=O)(=O)C=C2`, for which the melting point lay within 224 to 228 °C.
For `CSc1cc2c(cc1C(F)(F)F)N(C(=O)Nc1cccc(C(=O)NC3CCN(Cc4ccccc4)C3)c1)CC2` (stereo not given), the melting point lay within 174 to 175 °C.
In turn, `O=c1ccc(O)nn1-c1ccc(OC(F)(F)F)cc1` had a melting point of 243 °C.
Consider `Nc1ccc(F)c(-c2ccncc2)n1`, for which the melting point was 189 to 190 °C.
In turn, `O=C(O)Cn1ncc2c(=O)n3c(nc21)SCC3` yielded a melting point of 212 to 214 °C.
The value for `CCc1nc2c(N)nc(C)c(C)c2n1CCOCCNC(=O)N1CCOCC1` was 182 to 184 °C.
The value for `CCCCCCCCCCCCCCC(CCC(=O)OCc1ccccc1)(C(=O)O)C(=O)O` was 47 to 49 °C; that for `CC(S)C(=O)Nc1ccc(C2=NNC(=O)CC2C)cc1` (stereo not given) was 236 to 237 °C; that for `OC1CCCCCC/C1=C\Br` (stereo not given) was 144 to 145 °C.
The value for `COc1ccc(N=C2C=CC(=O)C=C2)c(CO)c1` was 87 to 89 °C; that for `CON1C(C)(C)CC(OCC2CO2)CC1(C)C` (stereo not given) was 47 to 49 °C.
`CCOC(=O)c1ccccc1N(CC(=O)N(C)c1ccccc1)C(=O)C(F)(F)F` gave a melting point of 95 °C.
The value for `COc1cc(OCC(=O)N[C@H]2CCN(Cc3ccccc3)C2)ccc1C(=NN)C(=O)c1ccc(O)c(N)c1` was 139 to 141 °C.
The value for `COC(=O)c1cc(Br)c(OC)cc1O` was 122 to 124 °C; that for `Nc1cc(-c2ccco2)ccc1Nc1cccc(-n2cccc2)c1` was 163 to 164 °C; that for `N#Cc1cccc(Oc2ncccc2C(=O)NCc2ccc(S(N)(=O)=O)cc2)c1` was 179 to 180 °C.
In the case of `CCCCCCCCOc1ccc(-c2ccc(NC(=O)N(O)C(CC)CC)cc2)cc1`, the melting point was 151 to 152 °C.
In the case of `Cc1noc(NC(=O)N2CCN(c3cc(-c4ccc(F)cc4F)ncn3)CC2)c1C`, the melting point fell in the range of 198 to 199 °C.
The value for `CC(=O)Oc1ccc(CCc2cc(OC(C)=O)cc(OC(C)=O)c2)cc1` was 52 to 52.5 °C; that for `CNC(=O)C(NC(=O)Nc1n[nH]c(=S)s1)c1ccccc1` (stereo not given) was 240 to 241 °C.
Regarding `Nc1ncnc2c1ncn2OC[C@@H](CO)OCP(=O)(O)O`, the melting point fell in the range of 200 to 205 °C.
The value for `Cc1c(Sc2ccc(Cl)cc2)c2cc(NS(C)(=O)=O)ccc2n1CC(=O)O` was 214 °C; that for `CCCCc1nc2c(N)nc3c(c2n1CCNC(=O)c1cc(C(C)(C)C)c(O)c(C(C)(C)C)c1)NCCC3` was 208 to 210 °C; that for `COc1nc2ccccc2cc1NC(=O)N1CCN(c2cccc(OCC3CC3)c2)CC1` was 146 to 147 °C.
The value for `S=C(Nc1ccc(Cl)cc1)NC12CC3CC(CC(C3)C1)C2` was 185 °C; that for `O=Cc1c2n(c3cc4c(cc13)OCO4)CCC2` was 169 to 170 °C; that for `Cc1c(NC(=O)CC(C)(C)C)cc2c(c1C)OC(C)(C)C2c1ccccc1C(C)C` (stereo not given) was 188 to 189 °C.
The value for `CC(=O)OCc1nc2c([N+](=O)[O-])cc(Br)cc2n1C` was 143 to 145 °C; that for `Cc1ccc(C)n1CCNC(=O)CN(C)C` was 63 to 65 °C; that for `CCNc1ncn(Cc2ccc(OC)c(OC3CCCC3)c2)c2nc(C(C)C)nc1-2` was 205 to 207 °C.
The molecule `Nc1cc(CCC(=O)Nc2ccc(Cl)cc2Cl)ccc1O` registered a melting point of 130 to 131 °C.
For `C[C@@H](O)c1nccc(N2CCN(c3nc4ccncc4o3)CC2)n1`, the melting point lay in the range of 181 to 183 °C.
Take `O=C(CSc1ccc(O)cc1)NC(=O)c1ccccc1`: the melting point lay within 149 to 151 °C.
The value for `O=C(Nc1ccccc1)Nc1ncc(Oc2ccc(Cl)cc2)c(N2CCOCC2)n1` was 229 to 231 °C; that for `Cc1[nH]c(=O)[nH]c1C(=O)c1ccco1` was 214 to 216 °C.
The value for `CCN1C(=O)C(C)(C)C(=O)N(C)c2cc(CN(CCn3ccc4ccsc4c3=O)Cc3cnccc3C)ccc21` was 138 to 142 °C; that for `Cc1sc(N)c(C(=O)c2cccs2)c1C` was 117 to 118 °C; that for `Cc1c(C(=O)O)oc2ccccc2c1=O` was 192 to 193 °C.
The value for `Cc1cncn1-c1cc(N)cc(C(F)(F)F)c1` was 131 to 133 °C; that for `C=Cc1ncn2c1[C@@H]1CCCN1C(=O)c1c(Cl)cccc1-2` was 213 to 215 °C; that for `CCC(C1OC(=O)c2ccccc21)[N+](=O)[O-]` (stereo not given) was 90 to 92 °C.
In turn, `COc1ccc(-n2cc(C(=O)O)cn2)cc1` yielded a melting point of 235 to 237 °C.
The value for `COc1ccccc1N(CCN1CCC(C(=O)c2ccc(F)cc2)CC1)S(=O)(=O)C1=CCC(=NO)C=C1` was 162 to 168 °C; that for `Cc1nc(-c2nn(Cc3ccccc3)c3ccccc23)oc1CO` was 127 to 129 °C; that for `CN1Cc2c(C#CC(O)(C3CC3)C3CC3)ncn2-c2cccc(Cl)c2C1=O` was 179 to 181 °C.
Molecule `Cc1cccc(Nc2cc(Cl)nc(SCC(=O)NN3CCCCC3)n2)c1C` registered a melting point of 113 to 115 °C.
For the molecule `CN(c1cc(OC(F)(F)F)cc2cc(C(N)=O)[nH]c12)S(=O)(=O)c1cccs1`, the melting point lay within 228 to 229 °C.
The value for `COc1ccc(C(=O)C=CC(=O)O)cc1OC` was 174 to 175 °C; that for `Cc1ccnc(-c2ccccc2)c1C(=O)O` was 210 to 212 °C.
For the molecule `O=C1c2ccc(Nc3ccc(F)cc3F)cc2CCc2cc(OCCO)ccc21`, the melting point was found to be 138 °C.
The value for `COC12CC(CCOC(=O)c3cncc(Br)c3)CN(C)C1Cc1cn(C)c3cccc2c13` (stereo not given) was 187 to 190 °C.
The molecule `OCCNc1nc(NCc2ccccc2)c2ncc(Nc3ncccn3)cc2n1` returned a melting point of 141 to 142 °C.
The value for `COc1cccc(OC)c1CN1CC2CCCN2c2ncccc21` (stereo not given) was 211 to 213 °C; that for `Clc1ccc(C=CC(C=Cc2ccc(Cl)cc2)=NNC2=NCC(c3ccccc3)(c3ccccc3)N2)cc1` was 227 °C.
The value for `Cc1cc(NS(=O)(=O)c2ccccc2F)cc(C)c1S(=O)(=O)C[N+](=O)[O-]` was 175 to 177 °C; that for `Cc1cc(C)c(S(=O)(=O)NC(C)CS)c(C)c1` (stereo not given) was 74 to 76 °C.
For the molecule `Cc1ccc(C(=O)Nc2ccccc2C#N)c([N+](=O)[O-])c1`, the melting point was 230 to 232 °C.
On to `O=C(O)CCCc1ccc(-c2ccccc2)cc1`, for which the melting point is 118 to 119 °C.
On to `COc1ccc2[nH]c(SCc3cc(N4CCOCC4)c(F)cn3)nc2c1`, for which the melting point lay in the range of 142 to 144 °C.
In turn, `COC(=S)C1CCn2c(C(=O)c3ccccc3)ccc21` (stereo not given) returned a melting point of 69 °C.
With `COC(=O)c1ccc(NC(=O)NCc2cccc(OC(C)=O)c2)cc1Cl`, the melting point is 113 to 114 °C.
The value for `O=C(O)c1ccc(C(=O)N[C@@H](Cc2c[nH]c3ccccc23)C(=O)O)cc1` was 187 to 189 °C; that for `OCC1OC(n2cnc3c(NCCc4csc5ccc(Cl)cc45)ncnc32)C(O)C1O` (stereo not given) was 167 to 169 °C; that for `O=C(NCC12CC3CC(CC(C3)C1)C2)c1c(Cl)ccc2nc(N3CCC(n4cn[nH]c4=O)CC3)ccc12` was 294 to 295 °C.
`CN1C(=O)C([S-])=C(SC(N)=[NH2+])C1=O` returned a melting point of 150 to 152 °C.
Turning to `C=CCOC(=O)c1cccc(NC(=O)NC(CC(=O)OC(C)(C)C)C(=O)Nc2ccccc2C(=O)c2ccc(OC)cc2)c1` (stereo not given), the melting point was in the range of 190 to 191 °C.
Regarding `CCC1(CC)c2cc(C(=O)O)c(C(=O)O)cc2C(CC)(CC)N1C(=O)c1ccccc1`, the melting point is 244 to 246 °C.
In turn, `COC(=O)c1ccc(N(N)C(=O)c2ccc(Cl)c(S(N)(=O)=O)c2)c([N+](=O)[O-])c1` showed a melting point of 144 to 147 °C.
The value for `CC(C)(C)OC(=O)NCCCCC(=O)N[C@@H](CC(=O)OCc1ccccc1)C(=O)N[C@@H](Cc1ccccc1)C(=O)OCc1ccccc1` was 120 °C; that for `CC(C)(N)CNc1ccnc2cc(Cl)ccc12` was 169 to 171 °C.
`CCN(CC)C(C#N)c1ccc(OCc2ccccc2)cc1` (stereo not given): the melting point was in the range of 75 to 76 °C.
The value for `N#Cc1nc2cccc(O)c2s1` was 225 °C; that for `Cc1cccc([N+](=O)[O-])c1C(=O)Nc1nnn[nH]1` was 230 to 232 °C.
With `CC(C)CCC(C)(C#N)N=NC(C)(C#N)CCC(C)C` (stereo not given), the melting point was 56 to 58 °C.
